Laboratory results published in PubChem BioAssay (NCI).
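Step 1: Grow cells in 96-well plates. Step 2: Expose to compound for 48 hours at 5 concentrations. Step 3: Interpolate endpoints linearly; if unreached, use highest concentration. TGI: concentration producing complete growth inhibition.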

Assays:
Experiment in all cases: NCI tumour cell line growth inhibition, 48 h
[1] = system: 786-0 renal
[2] = system: A498 renal
[3] = system: A549 NSCLC
[4] = system: ACHN renal
[5] = system: CAKI-1 renal
[6] = system: CCRF-CEM leukemia
[7] = system: DLD-1 colon
[8] = system: DMS 273 small cell lung
[9] = system: EKVX NSCLC
[10] = system: HOP-18 NSCLC
[11] = system: HOP-92 NSCLC
[12] = system: IGROV1 ovarian
[13] = system: K-562 leukemia
[14] = system: KM20L2 colon
[15] = system: LXFL 529 NSCLC
[16] = system: M14 melanoma
[17] = system: MALME-3M melanoma
[18] = system: MOLT-4 leukemia
[19] = system: NCI-H460 lung
[20] = system: NCI-H522 lung
[21] = system: OVCAR-3 ovarian
[22] = system: OVCAR-8 ovarian
[23] = system: RPMI-8226 leukemia
[24] = system: RXF 393 renal
[25] = system: RXF-631 renal
[26] = system: SF-295 CNS
[27] = system: SF-539 CNS
[28] = system: SK-MEL-5 melanoma
[29] = system: SN12C renal
[30] = system: SR leukemia
[31] = system: SW-620 colon
[32] = system: TK-10 renal
[33] = system: UO-31 renal
[34] = system: COLO 205 colon
[35] = system: HCC-2998 colon
[36] = system: HCT-116 colon
[37] = system: HCT-15 colon
[38] = system: HL-60(TB) leukemia
[39] = system: HOP-62 NSCLC
[40] = system: HT29 colon
[41] = system: KM12 colon
[42] = system: LOX IMVI melanoma
[43] = system: M19-MEL melanoma
[44] = system: NCI-H226 lung
[45] = system: NCI-H23 lung
[46] = system: OVCAR-4 ovarian
[47] = system: OVCAR-5 ovarian
[48] = system: SF-268 CNS
[49] = system: SK-MEL-2 melanoma
[50] = system: SK-MEL-28 melanoma
[51] = system: SNB-19 CNS
[52] = system: SNB-75 CNS
[53] = system: SNB-78 CNS
[54] = system: U251 CNS
[55] = system: UACC-257 melanoma
[56] = system: UACC-62 melanoma

Measured: TGI

CC(C)(C)OC(=O)N1N=NC2C3CC(=O)C(O3)C21 (configuration not stated)
not listed: [34] | [35] | [36] | [37] | [38] | [39] | [40] | [41] | [42] | [43] | [44] | [45] | [46] | [47] | [48] | [49] | [50] | [51] | [52] | [53] | [54] | [55] | [56]
> 100 µM: all other assays above

CCC1(CN(C)C)CC/C(=C\c2ccc3c(c2)OCO3)C1=O (configuration not stated)
not listed: [19] | [30]
> 100 µM: all other assays above
